Source: patent US20140243395A1, “SPRAY SYSTEM FOR PRODUCTION OF A MATRIX FORMED IN SITU” (ETHRIS GMBH, priority 2011, published 2014)

Assays:
[1] = viscosity of solvents, rotational viscometer; type: physicochemical; conditions: 25° C.
[2] = solubility of PLGA in the solvent, Matschke et al. 2002; cited from earlier work
mouse = conditions: i.v., 20% solution; cited from earlier work
rat = conditions: i.v., 40% DMI in isotonic saline solution (v/v); cited from earlier work
[3] = in vivo; cited from earlier work
mesothelial cells = conditions: human
Description: In addition to 10% fetal calf serum (PPA Laboratories, Austria) an epidermal growth factor (5 ng/ml, Sigma-Aldrich, Germany) and hydrocortisone (400 ng/ml, Sigma-Aldrich, Germany) were added to the medium. Furthermore, the cells were passaged at a confluence of about 80% and used for tests up to a passage of 20.
The cytotoxicity of the solvent was determined by an ATP-based assay (ATPlite, Perkin Elmer). […] After the incubation period, the medium was sucked off, the cells were washed once with PBS, 50 μl PBS per well was added, and the cell viability was determined according to the manufacturer's instructions. […] For each point in time, the concentration of the solvent was plotted against the measured cell viability (mean values±standard deviation from n=4 runs) and a non-linear standard function was adapted: […]
The LD50 values were taken from the estimated values of the plotted regression curve. It is the concentration at which a cell viability of still 50% could be measured.
In addition, the influence of the solvent on the metabolic cell viability was studied for a period of 11 hours. Metabolic cell viability is determined by the ATP value of the cells, which is a measure of viability. […]

For `CO[C@H]1CO[C@H]2[C@@H]1OC[C@H]2OC` [DMI, Dimethyl isosorbide], the “η (kinematic viscosity)” value [1] is listed as 8.16 mPas, the PLGA solubility [2] is listed as 41% and the LD50 (mouse) is listed as 6.9 g/kg body weight. The LD50 (rat) was 5.4 g/kg body weight.

In the case of “Alteplase: recombinantly produced t-PA protein”, the half-life in plasma [3] is listed as 3 to 6 min.

In the case of `CCOC(=O)[C@H](C)O` [Ethyl l-lactate], the “η (kinematic viscosity)” value [1] was 2.74 mPas.

With “tetrahydrofurfuryl alcohol polyethyleneglycol [tetraglycol]” the “η (kinematic viscosity)” value [1] was 16.6 mPas.

For glycerol formal, the “η (kinematic viscosity)” value [1] is given as 14.4 mPas, the “tolerance (LD50) higher by a factor compared to tetraglycol” value (mesothelial cells) is given as 400 and the PLGA solubility [2] is given as 33%.

For `CC(=O)OCC(COC(C)=O)OC(C)=O` [Triacetin], the “η (kinematic viscosity)” value [1] is listed as 18.75 mPas and the PLGA solubility [2] is listed as 35%.
